Results on four compounds are retold here after patent publication US8389534B2, “Pyrimidine non-classical cannabinoid compounds and related methods of use” (The University of Tennessee Research Foundation, priority 2008, dated 2013).

Data set [1] deals with glioblastoma brain cancer cell line LN-229. Description: Cytotoxicity assay (CCK8 viability). Type of data set: cell-based. The settings on record: Homo sapiens, cytotoxicity against LN-229 cells, 18 hours incubation. The protocol: Cytoxocity assay: Cells were seeded on a 96 well polystyrene plate in full serum media at a density of 75,000 cells per milliliter, 100 μL per well. Plates were incubated at 37° C. and 5% CO2 for 24 hours to allow cell attachment. Drug solutions were prepared in DMSO at 100× concentration and mixed 1:100 in 1% FBS media to yield the desired concentration. Drug-media mixtures were vortexed immediately prior to administration to cells. Full serum media was removed and replaced with drug-media mixtures and incubated for 18 hours. 10 μL of Cell Counting Kit 8 (CCK8, Dojindo# CK04-11) was added to each well to colormetrically assess viability. After 2-4 hours of incubation with the CCK8 dye, absorbance was read at 450 nm by a BioTek Synergy 2 plate reader.
The cytotoxicity of selected compounds against the glioblastoma brain cancer cell line LN-229 is depicted in Table 1.

Regarding `CC(C)(c1ccccc1)c1nc(O)c(-c2cc(Cl)cc(Cl)c2)c(O)n1` [Compound 8h, 5-(3,5-Dichlorophenyl)-2-(2-phenylpropan-2-yl)pyrimidine-4,6-diol], in data set [1], the EC50 stood at 51.8 µM.

As for `Oc1nc(Cc2ccccc2)nc(O)c1-c1ccccc1`, the melting point stood at 336.6 °C.

Regarding `CC(C)(c1nc(O)c(-c2cc(Cl)cc(Cl)c2)c(O)n1)C1CCCCC1` [Compound 8g, 2-(2-Cyclohexylpropan-2-yl)-5-(3,5-dichlorophenyl)pyrimidine-4,6-diol], in data set [1], the EC50 turned out to be 23.5 µM.

Take `CCCCCCC(C)(C)c1nc(O)c(-c2cccc(C)c2)c(O)n1` [Compound 8j, 2-(2-Methyloctan-2-yl)-5-m-tolylpyrimidine-4,6-diol]: in data set [1], the EC50 is 55.4 µM.

As a reminder, the EC50 is the midpoint of the concentration-response curve. Usually melting point stands for the temperature, or range, at which the solid turns liquid.
